Experimental findings from patent US12005050B2, “Methods for preventing or treating H. pylori infection” (TENNOR THERAPEUTICS (SUZHOU) LIMITED, priority 2022, dated 2024) are described below.

The assay concerns Helicobacter pylori. The assay can be described thus: H. pylori eradication by 14C UBT test (Example 2). Format: in vivo. The settings on record: BID × 14 day; for UBT results Negative / UBT results Positive: treatment group A: Compound I capsule 400 mg + rabeprazole sodium 20 mg + amoxicillin 1 g. Here is the method:
In this example, 80 patients that are positive for Helicobacter pylori infection were admitted to the trial. The 80 patients were randomly allocated to 5 groups at a ratio of 2:2:1:1:2, including 4 treatment groups and 1 control group, and the dosage regimen is shown in Table 4.
Patients were administered with the combination therapy daily according to the dosing regimen of the respective group from day 1 to day 14, and the last dose was administered in the morning of day 15. Pharmacokinetic blood samples were collected at the scheduled time point during the trial and patiented to a safety tolerance assessment and ^14C UBT test. All patients left the hospital after completing the safety tolerance assessment and PK blood collection on the 17th day (day 17), and returned to the research institution for follow-up visits from the 44th to 50th day (day 44-day 50). Follow-up of adverse events and laboratory abnormalities continued until the patients completely recovered or returned to baseline levels or stable states. Safety tolerance assessment, and ^14C UBT tests were performed to assess H. pylori eradication effects.
The administration regimen was as follows: • Group A, Group B and Control Group: • Twice per day, the combination therapy was administered orally within 30 mins after breakfast and dinner, respectively, and the combination therapy was administered for 14 days consecutively. On day 15, the last administration was provided within 30 mins after breakfast. Each patient was administered for 29 times in total. • Group C and Group D: • Three times per day, and two administrations were separated by about 8 hours.
Patients were examined with ^14C UBT test during the screening period (D-14˜D-2), baseline period (D-1), day 8 (D8), day 16 (D16) and days 44˜50 (D44˜D50). The test was done fasting before breakfast to determine the effects of H. pylori eradication in each group.
• Full Analysis Set (FAS): refers to all randomized patients who have been administered with the combination therapy of the present disclosure at least once; • Modified Intentionality Analysis Set (mITT): refers to all randomized patients who underwent a ^14C UBT test on days 28 to 34 after the last administration; • Protocol-compliant Set (PP): refers to patients who have not experienced major protocol violations: randomized and treated with more than 80% (including 80%) of the total amount of the drug expected to be used in the investigation, and who were tested for ^14C UBT on days 28 to 34 after the last administration; • Safety Analysis Set (SS): refers to the patients who have entered the trial and have been administered the combination therapy of the present disclosure at least once; • Pharmacokinetic Concentration Analysis Dataset (PKCS): refers to all enrolled patients who have been administered with the combination therapy of the present disclosure and had at least one PK concentration observation; • Pharmacokinetic Parameter Analysis Dataset (PKPS): Refers to all enrolled patients who have been administered with the combination therapy of the present disclosure and had at least one PK parameter observation data point. Demographic Analysis: • Demographic analysis was based on Full Analysis Set (FAS). Descriptive statistical analysis of all demographics (age, sex, weight, height, BMI, ethnicity, etc.) and baseline characteristics, based on the measurement of the last valid data before the administration of the combination therapy of the present disclosure. Evaluation of the Eradication Effect of Helicobacter pylori: • The eradication effect analysis was performed with the Full Analysis Set (FAS), based on the results of four ^14C UBT tests (negative or positive) in group A, group B, group C, and control groups at baseline, on day 8, day 16, and follow-up days 44 to 50, and three ^14C UBT test results (negative or positive) in group D at baseline, on day 8, and follow-up days 37 to 43. […]

[1] abbreviates: Day 8 after administration, FAS N = 20.
[2] abbreviates: Day 8 after administration, mITT N = 19.
[3] abbreviates: Day 16 after administration, FAS N = 20.
Where [4] appears, read: Day 16 after administration, mITT N = 19.
[5] abbreviates: Follow up period (Day 44~Day 50), FAS N = 20.
Setting [6] is: Follow up period (Day 44~Day 50), mITT N = 19.

As to `CO[C@H]1/C=C/O[C@@]2(C)Oc3c(C)c(O)c4c(c3C2=O)C2=NC3(CCN(CCn5c([N+](=O)[O-])cnc5C)CC3)NC2=C(NC(=O)/C(C)=C\C=C\[C@H](C)[C@H](O)[C@@H](C)[C@@H](O)[C@@H](C)[C@H](OC(C)=O)[C@@H]1C)C4=O` [Compound I, 4-Deoxy-3,4-[2-spiro-[1-[2-(2-methyl-5-nitro-imidazol-1-yl)ethyl]-piperidin-4-yl]]-(1H)-imidazo-(2,5-dihydro)rifamycin], the “UBT results Negative” value reads like this: under setting [1], 18 (90.0) n(%); under setting [2], 18 (94.7) n(%); under setting [3], 18 (90.0) n(%); under setting [4], 18 (94.7) n(%); under setting [5], 18 (90.0) n(%); under setting [6], 18 (94.7) n(%). Besides, the “UBT results Positive” value by setting is: under setting [1], 1 (5.0) n(%); under setting [2], 1 (5.3) n(%); under setting [3], 1 (5.0) n(%); under setting [4], 1 (5.3) n(%); under setting [5], 1 (5.0) n(%); under setting [6], 1 (5.3) n(%). For the same molecule, the “Eradication rate (mITT set) of Helicobacter pylori” value (treatment group A: combination therapy of compound I, rabeprazole sodium and amoxicillin) was determined as 94.7%.
